Assay results as given in article PMC7060200, “Selective Binding of HSC70 and its Co-Chaperones to Structural Hotspots on CFTR” (Scientific Reports, 2020).
Ends that are not written are not given here. Peptide text beside a SMILES is read from it.

Legend:
HSC70 [1] = target: T1, HSC70 (Homo sapiens, UniProt P11142); assay: Competition ELISA: soluble peptide vs HSC70 binding to immobilized 1097-L; conditions: for HSC70 binding site by competition screen (in words): 1 μM HSC70, 100 μM soluble peptide, Fig. 3c/5, cutoff twice SD of 733-L, n ≥ 4; for competition of HSC70 binding to immobilized 1097-L (in words): 1 μM HSC70, soluble peptide up to 100 μM; for Kd: read-out: Kd from competition curves, HSC70
T1 construct: made in house
Protocol: (§1) HSC70, DJA1 and DJA2 were purified as His-tagged proteins, as described. HSC70 was also amplified by PCR with an N-terminal FLAG tag, inserted into pPROEXHTa (Invitrogen) and purified as described. HSC70 was stored in 100 mM KOAc, 20 mM HEPES-KOH pH 7.5, 5 mM MgOAC2 (buffer G), DJA1 and DJA2 in 500 mM NaCl, 20 mM HEPES-KOH pH 7.5, 5 mM MgOAC2 (buffer H). Avi-tagged CFTR NBD1 was purified as described.
(§2) The CFTR peptide library was designed as 15-mers with 10-residue overlaps covering the cytosolic sequences as in Fig. 1a and Supplemental Table S1. Synthetic peptides (Mimotopes, PepSet purity) contained an N-terminal biotin followed by linker sequence GSGS and the 15-mer sequence. […] Peptides were reconstituted in DMSO or water.
(§3) For peptide binding, streptavidin-coated black 96-well plates (Nunc Maxisorp, ThermoFisher) were pre-rinsed with PBS containing 0.05% Tween-20 (PBST), and 5 µM biotinylated peptides in 100 µl PBS were bound overnnight at 4 °C with agitation. Plates were washed with PBST and blocked with PBST containing 0.5% bovine serum albumin (BSA) for 1 h. After removal of blocking solution, 100 µl reactions containing chaperones at indicated concentrations were bound for 45 min at room temperature with agitation. HSC70 reactions were in buffer G containing 1 mM ATP, DJA1 and DJA2 reactions were in buffer H. For competition assays, chaperones and peptides were mixed at indicated concentrations immediately before the reactions were added to the plates. For detections, the plates were washed in PBST and 5 μM His-Probe-HRP conjugate (ThermoFisher) in 100 μL PBST added for 15 min with agitation. After washing in PBST, plates were developed using Amplex Red (ThermoFisher) according to manufacturer’s instructions, in a fluorescence plate reader (Tecan M1000).
(§4) Affinities were determined separately from binding curves and from competition curves. Data from binding of chaperones to immobilized peptides (Fig. 2a,b and Supplemental Fig. S2a–c) were fit to the equation 1/(1 − i) = (C/i)/Kd^B − b, where i is the relative saturation, C is the chaperone concentration (1 μM), Kd^B is the apparent dissociation constant from the binding data. In the plot of 1/(1 − i) against (C/i), the slope is 1/Kd^B, and −b is the intercept. […] In the plot of bi + (C/Kd^B)/i over D, the slope is 1/Kd^C, and e is the intercept. The amount of chaperone bound in the absence of competitor was set as i = 1.
(§5) Established statistical methods[71]–[73] were used to analyze the data for chaperone binding to the peptide library. First, biological and statistical outliers were identified with the Tukey method in two rounds, for biological and then statistical outliers. […] Binding data were represented as multiples of the standard deviations from the normal means. Binding in the presence of competitor peptides were shown as a fraction of binding in the absence of competitor, or the fraction competed calculated as 1 – fraction bound. Values were compared using a two-tailed unpaired Student’s t-test assuming unequal variance.

DJA2 [2] = target: T2, DJA2 (Homo sapiens, UniProt O60884); assay: Competition ELISA: soluble peptide vs DJA2 binding to immobilized 1097-L; conditions: for DJA2 binding site by competition screen (in words): 1 μM DJA2, 100 μM soluble peptide, Fig. 3c/5, cutoff twice SD of 733-L, n ≥ 4; for competition of DJA2 binding to immobilized 1097-L (in words): 1 μM DJA2, soluble peptide up to 100 μM
T2 construct: made in house
Protocol: as §1, §2, §3, §4, §5

HSC70 [3] = target: T1, HSC70; assay: ELISA binding of HSC70 to immobilized CFTR NBD1 and competition by soluble peptides; conditions: 1 μM HSC70, with ATP, soluble peptide, Fig. 4a; n = 5
Protocol: as §1
For NBD1 binding, 100 nM of strep-tagged NBD1 in 100 µl of 150 mM NaCl, 50 mM Na2HPO4 pH 7.5, 1 mM ATP, and 40 µM DTT (buffer N), was bound to streptavidin plates for 1 hour at 4 °C with agitation. Plates were washed with PBST and incubated in buffer N at 30 °C in a water bath for 5 min. Then, plates were blocked in PBST containing 0.5% BSA, followed by the addition of HSC70 binding reactions, and detection as above.

HSC70 and DJA2 = assay: Refolding of guanidine denatured luciferase by HSC70 and DJA2; type: biochemical; conditions: 4 μM each HSC70 and DJA2, 100 nM luciferase, 100 μM peptide (25-fold excess), 60 min, % of control without peptide; n = 3
Protocol: Refolding of guanidine denatured luciferase with HSC70 and DJA2 was as described. […] To monitor refolding, luciferase activity was measured in a luminometer (Berthold Sirius) with the luciferase assay kit (Promega). For co-IPs, 20 μL reaction aliquots were stopped by dilution at 4 °C to 500 μL with buffer containing 0.1% Triton X-100, 0.2% BSA and 0.04 mg/mL apyrase (Sigma). Reactions were incubated with FLAG-M2 magnetic beads (Sigma) for 1 h at 4 °C with agitation, then beads were isolated and washed with buffer G containing 0.1% Triton X-100, and eluted with 40 μL of 1 μg/mL FLAG peptide in the same buffer. Samples were analyzed on Western blots detected with antibodies against luciferase (Sigma, L2164) and the FLAG-M2 tag (Sigma, F1804).

DJA1 [4] = target: T3, DJA1 (Homo sapiens, UniProt P31689); assay: Competition ELISA: soluble peptide vs DJA1 binding to immobilized 1097-L; conditions: for DJA1 binding site by competition screen (in words): 1 μM DJA1, 100 μM soluble peptide, Fig. 3c/5, cutoff twice SD of 733-L, n ≥ 4; for competition of DJA1 binding to immobilized 1097-L (in words): 1 μM DJA1, soluble peptide up to 100 μM
T3 construct: made in house
Protocol: as §1, §2, §3, §4, §5

HSC70 [5] = target: T1, HSC70; assay: Fluorescent peptide binding, HSC70; conditions: 0.5 μM FAM-1092-S, buffer G, 45 min, ex 492 nm / em 520 nm, one site total binding fit, n ≥ 8
Description: (§6) The CFTR peptide library was designed as 15-mers with 10-residue overlaps covering the cytosolic sequences as in Fig. 1a and Supplemental Table S1. Synthetic peptides (Mimotopes, PepSet purity) contained an N-terminal biotin followed by linker sequence GSGS and the 15-mer sequence. Soluble peptides (Lifetein) were synthesized unmodified at >85% purity, sequences in Supplemental Table S1 and S2. Fluorescent peptide 1092-S was fused to the linker sequence SG and an N-terminal 6-carboxyfluorescein (FAM) label. Peptides were reconstituted in DMSO or water.
(§7) 0.5 μM FAM-1092-S was incubated with chaperones at the indicated concentrations for 45 min. HSC70 was incubated in buffer G, DJA1 and DJA2 were incubated in buffer H. The fluorescence signal for each condition was measured at 492 nm wavelength excitation, 520 nm wavelength emission, and 5 nm slit width, using a Horiba FluoroMax spectrofluorometer. Data were collected with the FluorEssence software (Horiba). Dissociation constants (Kd) were determined by nonlinear regression fit of the averaged data to a one site – total binding model, using GraphPad Prism 8. The 95% confidence intervals and R^2 correlation coefficients are reported (Supplemental Table S3).

DJA1 [6] = target: T3, DJA1; assay: Fluorescent peptide binding, DJA1; conditions: 0.5 μM FAM-1092-S, buffer H, 45 min, ex 492 nm / em 520 nm, one site total binding fit, n ≥ 8
Description: as §6, §7

DJA2 [7] = target: T2, DJA2; assay: Fluorescent peptide binding, DJA2; conditions: 0.5 μM FAM-1092-S, buffer H, 45 min, ex 492 nm / em 520 nm, one site total binding fit, n ≥ 8
Description: as §6, §7

HSC70 [8] = target: T1, HSC70; assay: ELISA binding of HSC70 to immobilized biotinylated CFTR peptides
Protocol: as §1, §2, §3, §4, §5

DJA1 [9] = target: T3, DJA1; assay: ELISA binding of DJA1 to immobilized biotinylated CFTR peptides; conditions: 2 μM DJA1, absence of ATP, immobilized 15-mer; n ≥ 3
Protocol: as §1, §2, §3, §4, §5

DJA2 [10] = target: T2, DJA2; assay: ELISA binding of DJA2 to immobilized biotinylated CFTR peptides; conditions: 2 μM DJA2, absence of ATP, immobilized 15-mer; n ≥ 3
Protocol: as §1, §2, §3, §4, §5

Flag-tagged HSC70 = assay: Co-immunoprecipitation of luciferase with Flag-tagged HSC70 during refolding; type: biochemical; conditions: refolding reactions stopped at 0 or 15 min, FLAG IP, Western blot, Fig. 4d
Protocol: as §1
Refolding of guanidine denatured luciferase with HSC70 and DJA2 was as described. 100 µl reactions contained 4 μM each of HSC70 and DJA2, 2 mM ATP and […] in buffer G, with the indicated concentrations of peptides. To monitor refolding, luciferase activity was measured in a luminometer (Berthold Sirius) with the luciferase assay kit (Promega). For co-IPs, 20 μL reaction aliquots were stopped by dilution at 4 °C to 500 μL with buffer containing 0.1% Triton X-100, 0.2% BSA and 0.04 mg/mL apyrase (Sigma). Reactions were incubated with FLAG-M2 magnetic beads (Sigma) for 1 h at 4 °C with agitation, then beads were isolated and washed with buffer G containing 0.1% Triton X-100, and eluted with 40 μL of 1 μg/mL FLAG peptide in the same buffer. Samples were analyzed on Western blots detected with antibodies against luciferase (Sigma, L2164) and the FLAG-M2 tag (Sigma, F1804).

T2 sequence (O60884 whole entry): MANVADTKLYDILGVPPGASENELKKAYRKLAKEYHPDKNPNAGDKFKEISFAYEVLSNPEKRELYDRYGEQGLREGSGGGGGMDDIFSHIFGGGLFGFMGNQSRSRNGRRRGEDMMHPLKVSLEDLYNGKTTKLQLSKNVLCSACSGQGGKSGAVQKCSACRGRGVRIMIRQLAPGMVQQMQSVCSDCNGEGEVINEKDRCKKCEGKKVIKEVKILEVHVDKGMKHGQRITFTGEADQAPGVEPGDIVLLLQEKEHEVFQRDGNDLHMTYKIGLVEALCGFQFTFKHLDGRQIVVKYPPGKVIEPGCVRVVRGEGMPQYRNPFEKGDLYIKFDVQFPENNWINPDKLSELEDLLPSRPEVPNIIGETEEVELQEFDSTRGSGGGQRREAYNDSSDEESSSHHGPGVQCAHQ
T1 sequence (P11142 whole entry): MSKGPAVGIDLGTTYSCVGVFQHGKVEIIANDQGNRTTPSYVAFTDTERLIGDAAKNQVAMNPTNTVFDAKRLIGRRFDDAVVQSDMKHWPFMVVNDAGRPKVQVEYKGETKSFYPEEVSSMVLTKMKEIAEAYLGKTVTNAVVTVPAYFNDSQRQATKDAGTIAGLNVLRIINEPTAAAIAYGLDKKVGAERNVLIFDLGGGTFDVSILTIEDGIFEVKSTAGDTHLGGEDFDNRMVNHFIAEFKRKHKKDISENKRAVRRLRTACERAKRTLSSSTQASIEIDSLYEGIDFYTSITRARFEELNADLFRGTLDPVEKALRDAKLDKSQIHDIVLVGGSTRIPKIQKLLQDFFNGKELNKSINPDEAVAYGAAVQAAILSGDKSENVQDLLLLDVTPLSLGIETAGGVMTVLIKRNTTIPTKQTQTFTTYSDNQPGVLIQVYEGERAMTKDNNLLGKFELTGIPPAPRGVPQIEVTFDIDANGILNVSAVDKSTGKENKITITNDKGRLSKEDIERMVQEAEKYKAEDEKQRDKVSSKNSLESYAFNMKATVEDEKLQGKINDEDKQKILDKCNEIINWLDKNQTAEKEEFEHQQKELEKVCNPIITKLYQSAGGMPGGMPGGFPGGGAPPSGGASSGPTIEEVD

| Compound | HSC70 binding site by competition screen (in words) (HSC70 [1]) | competition of HSC70 binding to immobilized 1097-L (in words) (HSC70 [1]) | Kd (HSC70 [1]) | DJA2 binding site by competition screen (in words) (DJA2 [2]) | competition of HSC70 binding to immobilized NBD1 (in words) (HSC70 [3]) | effect on luciferase refolding (in words) (HSC70 and DJA2) | DJA1 binding site by competition screen (in words) (DJA1 [4]) | competition of DJA1 binding to immobilized 1097-L (in words) (DJA1 [4]) | competition of DJA2 binding to immobilized 1097-L (in words) (DJA2 [2]) | further results |
| --- | --- | --- | --- | --- | --- | --- | --- | --- | --- | --- |
| QKVFIFSGTF [Peptide 1295-S] | HSC70-DJA2 sites | competed | 1260 nM | HSC70-DJA2 sites | effective competitors | partial but still significant | – | – | – | – |
| DKILILHEG [Peptide 618-S] | bound by HSC70, DJA2 and DJA1 | competed HSC70 well | – | bound by HSC70, DJA2 and DJA1 | competed the majority of HSC70 | partial but still significant | bound by HSC70, DJA2 and DJA1 | – | – | – |
| NWFLYLSTL [Peptide 1092-S] | – | competed all three chaperones | 1260 nM | – | effective competitors | inhibited refolding | one of the few sites also bound by DJA1 | competed all three chaperones | competed all three chaperones | Kd (DJA1 [4]; read-out: Kd from competition curves, DJA1): 5.47 µM; Kd (DJA2 [2]): 2630 nM; Kd from fluorescence binding, HSC70 (HSC70 [5]): single micromolar range; Kd (HSC70 [5]; read-out: Kd from fluorescence binding, HSC70): 6.17 µM; Kd from fluorescence binding, DJA1 (DJA1 [6]): single micromolar range; Kd (DJA1 [6]; read-out: Kd from fluorescence binding, DJA1): 3.97 µM; Kd from fluorescence binding, DJA2 (DJA2 [7]): single micromolar range; Kd (DJA2 [7]; read-out: Kd from fluorescence binding, DJA2): 8.46 µM |
| 733-L: R 15-mer 726-740, negative control (EDSDEPLERRLSLVP; UniProt P13569 726-740, looked up, fragment) [Peptide 733-L] | – | – | – | – | did not | no effect | – | – | – | binding in peptide library screen, HSC70 (in words) (HSC70 [8]; 2 μM HSC70, with ATP, immobilized 15-mer, n ≥ 3): low binding; titration binding / saturation, HSC70 (in words) (HSC70 [8]; HSC70 titrated to 1.5 μM on immobilized peptide, Fig. 2a, S2a, n ≥ 6): low; binding in peptide library screen, DJA1 (in words) (DJA1 [9]): low binding; binding in peptide library screen, DJA2 (in words) (DJA2 [10]): low binding; luciferase bound to HSC70 in presence of peptide (in words) (Flag-tagged HSC70): luciferase was substantially bound |
| CC[C@H](C)[C@H](NC(=O)[C@@H](NC(=O)[C@@H](NC(=O)[C@H](CS)NC(=O)[C@@H](N)CC(=O)O)[C@@H](C)O)C(C)C)C(=O)N[C@@H](CC(C)C)C(=O)N[C@@H](CS)C(=O)N[C@@H](CCC(=O)O)C(=O)N[C@@H](Cc1c[nH]cn1)C(=O)O [Peptide 1398-S] (H-DCTVILCEH-OH; N-terminus and C-terminus assumed) | bound by HSC70, DJA2 and DJA1 | competed | – | bound by HSC70, DJA2 and DJA1 | effective competitors | inhibited refolding | bound by HSC70, DJA2 and DJA1 | competed | competed | – |
| TSLLMVIMG [Peptide 469-S] | HSC70-DJA2 sites | competed HSC70 well | – | HSC70-DJA2 sites | competed the majority of HSC70 | inhibited refolding | – | – | competed | – |
